From ChEMBL document CHEMBL3871263, “Arylthiosemicarbazones as antileishmanial agents” (Eur J Med Chem, 2016) come the findings set out here.

In data set [1] the test system is Leishmania donovani. The data set is described as follows: Antileishmanial activity against intracellular amastigote stage of Leishmania donovani MHOM/ET/67/HU3 infected in human THP1 cells assessed as parasite growth measured after 72 hrs by luciferase reporter gene assay. The note with it: MHOM/ET/67/HU3, THP-1, 72 h. It is filed as functional, cell-based.
A short description of data set [2]: Cytotoxicity against human MRC5 cells assessed as reduction in cell growth measured after 72 hrs by MTT assay. It is filed as toxicity, cell-based.
Data set [3] is described as follows: Cytotoxicity against human THP1 cells assessed as reduction in cell growth measured after 72 hrs by MTT assay. It is filed as toxicity, cell-based, THP-1.
Data set [4] in a line: Selectivity index, ratio of EC50 for human MRC5 cells to EC50 for intracellular Leishmania donovani MHOM/ET/67/HU3 amastigotes. The note with it: read-out: Ratio EC50. It is filed as toxicity, cell-based.

For `Cn1cc(/C=N/NC(N)=S)c2ccccc21`, the EC50 in data set [1] was above 10 µM. Moreover, the half-maximal effective concentration (EC50) at 72 h in data set [2] and in data set [3] was above 200 µM in each case.
As for `Cn1ccc2cc(/C=N/NC(N)=S)ccc21`, the EC50 in data set [1] was above 10 µM. Further, the EC50 at 72 h in data set [2] and in data set [3] was above 200 µM in each case.
With `CN(C)c1ccc(/C=N/N=C(/N)S)c2ccccc12`, in data set [4], the selectivity ratio is above 30. For the same compound, the EC50 in data set [1] is 6.5 µM. Besides, the 50% effective concentration (EC50) at 72 h in data set [2] and in data set [3] was above 200 µM in each case.
As to `CCCCOc1ccc2cc(/C=N/NC(N)=S)ccc2c1`, the selectivity ratio in data set [4] came out at 33.2. Moreover, the EC50 in data set [1] is 1.27 µM. Moreover, the values for the concentration for a half-maximal effect (EC50) at 72 h in data set [2] and in data set [3] were 43 µM and 36 µM, respectively.
The matching figures for `NC(=S)N/N=C/c1ccc(F)c2ccccc12`: above 250, 0.8 µM, above 200 µM and 39 µM.
`COCOc1c(/C=N/NC(N)=S)ccc2ccccc12`: in data set [4], the selectivity ratio was 17.5. Moreover, the EC50 in data set [1] turned out to be 6.8 µM. Also, the EC50 at 72 h in data set [2] was determined as 119 µM; in data set [3], 56 µM.
Regarding `COCOc1ccc2cc(/C=N/NC(N)=S)ccc2c1`, the EC50 in data set [1] is above 10 µM. For the same compound, the EC50 at 72 h was 175 µM in data set [2] and above 200 µM in data set [3].
The matching figures for `NC(=S)N/N=C/c1cc2ccccc2c2ccccc12`: above 10 µM, 192 µM and above 200 µM.
With `NC(=S)N/N=C/c1c(OCC2CCCCC2)ccc2ccccc12`, the EC50 in data set [1] was above 10 µM. The figures for the EC50 at 72 h in data set [2] and in data set [3] were 33 µM and 28 µM, respectively.
In the case of `CCOc1ccc(/C=N/NC(N)=S)c2ccccc12`, the selectivity ratio in data set [4] was above 30. Moreover, in data set [1], the EC50 was found to be 7.2 µM. For the same compound, the EC50 at 72 h in data set [2] and in data set [3] was above 200 µM in each case.
Turning to `NC(=S)N/N=C/c1cn(CCCc2ccccc2)c2ccccc12`, the selectivity ratio in data set [4] is above 50. The EC50 in data set [1] was 4.1 µM. Besides, the EC50 at 72 h in data set [2] was above 200 µM; in data set [3] it was 30 µM.
On the same counts, the results for `CCOc1ccc2cc(/C=N/NC(N)=S)ccc2c1` are above 40, 5.4 µM, above 200 µM and 30 µM.
The matching figures for `NC(=S)N/N=C/c1cn(CC2CCCCC2)c2ccccc12`: 2.8, 9 µM, 26 µM and 27 µM.
On the same counts, the results for `NC(=S)N/N=C/c1ccc(OCC2CCCCC2)c2ccccc12` are 13.1, 2.2 µM, 28.9 µM and 150 µM.
As for `Cc1ccc(/C=N/NC(N)=S)c2ccccc12`, in data set [4], the selectivity ratio stood at 30.4. In data set [1], the EC50 was found to be 1.2 µM. Also, the EC50 at 72 h in data set [2] worked out at 37 µM; in data set [3], 32 µM.
On the same counts, the results for `NC(=S)N/N=C/c1ccc2ccccc2c1OCc1ccccc1` are 9.7, 2.6 µM, 25 µM and 28 µM.
As to `CCCCOc1c(/C=N/NC(N)=S)ccc2ccccc12`, in data set [4], the selectivity ratio was found to be 61.5. The EC50 in data set [1] is 1.4 µM. The EC50 at 72 h in data set [2] is 86 µM; in data set [3] it was above 200 µM.
As for `COc1ccc2cc(/C=N/NC(N)=S)ccc2c1`, the selectivity ratio in data set [4] is above 20. The EC50 in data set [1] stood at 9.3 µM. Moreover, the EC50 at 72 h was above 250 µM in data set [2] and 108 µM in data set [3].
With `NC(=S)N/N=C/c1cn(Cc2ccccc2)c2ccccc12`, in data set [1], the EC50 is above 10 µM. Besides, the figures for the EC50 at 72 h in data set [2] and in data set [3] were 175 µM and 28 µM, respectively.
For the compound `COc1ccc2c(OC)ccc(/C=N/NC(N)=S)c2c1`, the selectivity ratio in data set [4] was above 20. Also, the EC50 in data set [1] came to 9 µM. Further, the EC50 at 72 h in data set [2] and in data set [3] was above 200 µM each time.
With `NC(=S)N/N=C/c1ccc(OCc2ccccc2)c2ccccc12`, the selectivity ratio in data set [4] is 15.2. The EC50 in data set [1] was found to be 1.9 µM. The EC50 at 72 h in data set [2] stood at 29 µM; in data set [3], 27 µM.
On the same counts, the results for `NC(=S)N/N=C/c1c2ccccc2cc2ccccc12` are 8.5, 5.3 µM, 45 µM and 67 µM.
As for `COCOc1ccc(/C=N/NC(N)=S)c2ccccc12`, the EC50 in data set [1] is above 10 µM. Besides, the results for the EC50 at 72 h in data set [2] and in data set [3] were 126 µM and above 200 µM, respectively.
As for `NC(=S)N/N=C/c1ccc2cc(OCc3ccccc3)ccc2c1`, the selectivity ratio in data set [4] was determined as 22.6. Moreover, the EC50 in data set [1] turned out to be 1.2 µM. Also, the half-maximal effective concentration (EC50) at 72 h was determined as 27 µM in data set [2] and 28 µM in data set [3].
For `COc1ccc(/C=N/NC(N)=S)c2ccccc12`, the selectivity ratio in data set [4] is 8.4. Also, the EC50 in data set [1] came out at 5 µM. Further, the EC50 at 72 h is 42 µM in data set [2] and 47 µM in data set [3].
`NC(=S)N/N=C/c1c(OCc2ccccc2)ccc2ccccc12`: the selectivity ratio in data set [4] was determined as 3.7. Also, in data set [1], the EC50 was 8.1 µM. Further, the EC50 at 72 h in data set [2] amounted to 30 µM; in data set [3] it was 39 µM.
The matching figures for `Cc1cccc(Cn2cc(/C=N/NC(N)=S)c3ccccc32)c1`: 5.3, 4.3 µM, 23 µM and 32 µM.
The matching figures for `CCCCOc1ccc(/C=N/NC(N)=S)c2ccccc12`: 19.5, 2.1 µM, 41 µM and above 200 µM.
In the case of `NC(=S)N/N=C/c1ccc(-c2ccc(/C=N/NC(N)=S)cc2)cc1`, in data set [1], the EC50 is above 10 µM. Further, the EC50 at 72 h in data set [2] and in data set [3] was above 200 µM throughout.
On to `CCCCn1cc(/C=N/NC(N)=S)c2cccc(C)c21`, for which the selectivity ratio in data set [4] came out at 3.4. The EC50 in data set [1] worked out at 9 µM. The results for the EC50 at 72 h in data set [2] and in data set [3] were 31 µM and above 200 µM, respectively.
Turning to `Cn1c(/C=N/N=C(/N)S)cc2ccccc21`, the EC50 in data set [1] is above 10 µM. Further, the EC50 at 72 h in data set [2] and in data set [3] was above 200 µM in each case.
Consider `COc1ccc2ccccc2c1/C=N/N=C(/N)S`, for which, in data set [1], the EC50 was above 10 µM. In addition, the EC50 at 72 h in data set [2] came to 126 µM; in data set [3], 109 µM.
On to `C[C@@H]1[C@H](O)[C@@H](C)/C=C/C=C/C=C/C=C/C=C/C=C/C=C/[C@H](O[C@@H]2O[C@H](C)[C@@H](O)[C@H](N)[C@@H]2O)C[C@@H]2O[C@](O)(C[C@@H](O)C[C@@H](O)[C@H](O)CC[C@@H](O)C[C@@H](O)CC(=O)O[C@H]1C)C[C@H](O)[C@H]2C(=O)O` [AMPHOTERICIN B], for which the EC50 at 72 h in data set [2] was found to be 23 µM; in data set [3] it was 38 µM.
